These results are taken from PubChem BioAssay AID651963 (The Scripps Research Institute Molecular Screening Center, 2012).

The structures appear in SMILES notation.

This test has as its system C. elegans Q35::YFP muscle, polyQ foci count microscopy. Nature of the test: PubChem AID 651963. The settings on record: at 10 µM; hits give low values.

Regarding `COc1ccc(/C=C/C=C2C(=O)NC(=O)NC2=O)cc1`, the relative foci is 33.8%.
